A value given as a limit tells only on which side of the number the result lay.

What is called EC50 is the concentration giving half of the maximal effect. A lower EC50 goes with higher potency in that assay. As usually defined, the pEC50 is the negative decadic logarithm of the EC50, by convention in mol/L. Higher therefore signals a low EC50.

Test [1] deals with human Farnesoid X receptor ligand-binding domain/Gal4 DNA binding domain chimera (Homo sapiens (Human), UniProt Q96RI1). Nature of the test: Cell-based assay of FXR activation (FXR-UAS-bla HEK 293T beta-lactamase reporter). The note with it: cellular FXR beta-lactamase reporter assay; for Emax: HEK-293T, read-out: % Efficacy. As to the method: FXR activation was measured using a cell line and procedure obtained from Life Technologies (Cat # K1691). FXR-UAS-bla HEK 293T cells contain a human Farnesoid X receptor ligand-binding domain/Gal4 DNA binding domain chimera stably integrated into the CellSensor® UAS-bla HEK 293T cell line. The CellSensor® UAS-bla HEK 293T contains a beta-lactamase reporter gene under control of a UAS response element stably integrated into HEK 293T cells. Activation of FXR by bound ligands results in transcriptional activation of the beta-lactamase reporter gene, which is detected via assay of beta-lactamase activity.
Chain of human Farnesoid X receptor ligand-binding domain/Gal4 DNA binding domain chimera (Q96RI1 262-486, stated change not applied): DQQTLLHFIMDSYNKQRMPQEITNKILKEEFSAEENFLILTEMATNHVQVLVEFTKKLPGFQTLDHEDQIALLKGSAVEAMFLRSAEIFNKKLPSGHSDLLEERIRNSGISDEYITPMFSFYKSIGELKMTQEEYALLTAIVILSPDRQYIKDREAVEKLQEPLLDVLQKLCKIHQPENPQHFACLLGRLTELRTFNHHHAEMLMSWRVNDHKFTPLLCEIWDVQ
Chain of human Farnesoid X receptor ligand-binding domain/Gal4 DNA binding domain chimera (P04386 1-147 partner): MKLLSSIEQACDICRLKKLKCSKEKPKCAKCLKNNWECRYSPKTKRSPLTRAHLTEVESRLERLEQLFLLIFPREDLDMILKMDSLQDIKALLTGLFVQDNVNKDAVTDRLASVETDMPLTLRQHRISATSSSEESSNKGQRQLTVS
Cells are harvested and diluted into assay medium containing phenol red-free DMEM supplemented with 2% Charcoal-stripped FBS, pyruvate, non-essential amino acids. Cells are then transferred to a 384 well assay plate. Test compounds are dissolved in DMSO and a 3-fold serial dilution series is generated, then further diluted into assay medium. Compounds in assay medium are added to cells in the 384 well plate and allowed to incubate 16 h at 37 C in the presence of 5% CO2.
A FRET-based […] is loaded into cells as its acetomethoxy ester. Intracellular esterases liberate free CCF4, a cephalosporin core linking 7-hydroxycoumarin to fluorescein. In the presence of beta-lactamase activity produced in the presence of FXR agonists, cleavage of CCF4 spatially separates the two dyes and disrupts FRET, so that exciting the coumarin at 409 nm now produces a blue fluorescence signal at 447 nm. The change in FRET signal is plotted against the test compound concentration and fit to a 3-parameter logistical equation. The concentration required to produce 50% activation is expressed as pEC50 (−log EC50), and the extent of activation is expressed relative to GW4064 as % activation.
(In general: In a reporter assay the amount or activity of a reporter protein is the signal.)

In test [2] the target is ligand binding domain of human FXR (Homo sapiens (Human), UniProt Q96RI1). Nature of the test: FXR ligand binding assay (LanthaScreen TR-FRET, SRC2-2 peptide recruitment). The note with it: for pEC50: -log EC50, concentration required to produce 50% activation; for Emax: read-out: % Efficacy. As to the method: The affinity of FXR ligands for the ligand binding domain of FXR was determined using a commercially available human FXR ligand binding assay (LanthaScreen, Thermofisher Cat # PV4833). […] Binding of FXR ligands to the FXR ligand binding domain promotes binding of the fluorescein-labelled SRC2-2 peptide. This causes a FRET signal between the terbium-labelled anti-GST antibody and the fluorescein-labelled SRC peptide which are both bound to the FXR ligand binding domain.
Chain of ligand binding domain of human FXR (Q96RI1 262-486): as the sequence (Q96RI1 262-486, stated change not applied) above
Test compounds are dissolved in DMSO and a 3-fold serial dilution series is generated, then further diluted into assay buffer. The compounds are mixed with 5 nM GST-tagged FXR ligand binding domain, 5 nM Tb-labelled anti-GST antibody and 500 nM fluorescein-labelled SRC2-2 peptide in a pH7.4 buffer. The reaction is incubated at room temperature for 1 hour, then the FRET signal is measured as the ratio of the 520 nm/495 nm emission following excitation at 340 nm. The change in FRET signal is plotted against the test article concentration and fit to a 3-parameter logistical equation. The concentration required to produce 50% activation is expressed as pEC50 (−log EC50), and the extent of activation is expressed relative to GW4064 as % activation.
In general terms: TR-FRET usually uses a lanthanide donor and a delayed reading to cut background.

Where [3] appears, read: extent of activation relative to GW4064.
The mark [4] stands for this setting: FXR-UAS-bla HEK 293T cells, 16 h, pEC50 = -log EC50.

As to `CCCCCS(=O)(=O)NC(=O)c1ccc(N2C[C@@H]3C[C@H]2C[C@H]3OCc2c(-c3c(Cl)cccc3Cl)noc2C2CC2)c(F)c1` [Compound I-191, 4-((1S,4S,5R)-5-((5-cyclopropyl-3-(2,6-dichlorophenyl)isoxazol-4-yl)methoxy)-2-azabicyclo[2.2.1]heptan-2-yl)-3-fluoro-N-(pentylsulfonyl)benzamide], the Emax in test [1] (setting [3]) was 111%; in test [2] (setting [3]), 163%. Further, in test [1] (setting [4]), the EC50 was 0.0398 nM. Also, the pEC50 in test [2] was 8.4.
On to `O=C(O)c1cc(C2CCOCC2)c2nc(N3C(=O)[C@@H]4C[C@H]3C[C@H]4OCc3c(-c4c(Cl)cccc4Cl)noc3C3CC3)sc2c1` [Compound I-298, 2-((1S,4R,5R)-5-((5-cyclopropyl-3-(2,6-dichlorophenyl)isoxazol-4-yl)methoxy)-3-oxo-2-azabicyclo[2.2.1]heptan-2-yl)-4-(tetrahydro-2H-pyran-4-yl)benzo[d]thiazole-6-carboxylic acid], for which the Emax in test [1] (setting [3]) was found to be 112%; in test [2] (setting [3]), 133%. This molecule showed an EC50 in test [1] (setting [4]) of 7.94 nM.
Consider `O=C(NS(=O)(=O)C1CC1)c1ccc(N2C[C@@H]3C[C@H]2C[C@H]3OCc2c(-c3ccccc3C(F)(F)F)noc2C2CC2)c(F)c1` [Compound I-202, 4-((1S,4S,5R)-5-((5-cyclopropyl-3-(2-(trifluoromethyl)phenyl)isoxazol-4-yl)methoxy)-2-azabicyclo[2.2.1]heptan-2-yl)-N-(cyclopropylsulfonyl)-3-fluorobenzamide], for which the pEC50 in test [1] (setting [4]) is 9.4; in test [2] it was 8.5. For the same molecule, the “% Efficacy” value amounted to 114% in test [1] (setting [3]) and 215% in test [2] (setting [3]).
Take `O=CN(O)Cc1ccc(N2C[C@@H]3C[C@H]2C[C@H]3OCc2c(-c3c(Cl)cccc3Cl)noc2C2CC2)cc1` [Compound I-161, N-({4-[(1S,4S,5R)-5-{[5-cyclopropyl-3-(2,6-dichlorophenyl)-1,2-oxazol-4-yl]methoxy}-2-azabicyclo[2.2.1]heptan-2-yl]phenyl}methyl)-N-hydroxyformamide]: the Emax in test [1] (setting [3]) was 102%; in test [2] (setting [3]), 134%. In addition, in test [1] (setting [4]), the EC50 was 12.6 nM. In addition, in test [2], the pEC50 amounted to 6.9.
On the same counts, the results for `O=C(O)CNC(=O)c1ccc(N2C(=O)[C@@H]3C[C@H]2C[C@H]3OCc2c(-c3c(Cl)cccc3Cl)noc2C2CC2)cc1` [Compound I-358, 2-({4-[(1S,4R,5R)-5-{[5-cyclopropyl-3-(2,6-dichlorophenyl)-1,2-oxazol-4-yl]methoxy}-3-oxo-2-azabicyclo[2.2.1]heptan-2-yl]phenyl}formamido)acetic Acid] are 124%, 155%, 631 nM and 8.
For `O=C(NS(=O)(=O)C1CC1)c1ccc(N2C[C@@H]3C[C@H]2C[C@H]3OCc2c(-c3c(Cl)cccc3Cl)noc2C2(F)CC2)nc1` [Compound I-209, N-(cyclopropanesulfonyl)-6-[(1S,4S,5R)-5-{[3-(2,6-dichlorophenyl)-5-(1-fluorocyclopropyl)-1,2-oxazol-4-yl]methoxy}-2-azabicyclo[2.2.1]heptan-2-yl]pyridine-3-carboxamide], the Emax is 104% in test [1] (setting [3]) and 160% in test [2] (setting [3]). In test [1] (setting [4]), this molecule gave an EC50 of 15.8 nM. In test [2], this molecule came in with a pEC50 of 7.8.
Regarding `O=C(O)C1Cc2ccc(N3C(=O)[C@@H]4C[C@H]3C[C@H]4OCc3c(-c4c(Cl)cccc4Cl)noc3C3CC3)cc2C1` (stereo partly drawn) [Compound I-313, 5-[(1S,4R,5R)-5-{[5-cyclopropyl-3-(2,6-dichlorophenyl)-1,2-oxazol-4-yl]methoxy}-3-oxo-2-azabicyclo[2.2.1]heptan-2-yl]-2,3-dihydro-1H-indene-2-carboxylic Acid], the Emax in test [1] (setting [3]) is 112%; in test [2] (setting [3]), 140%. For the same molecule, in test [1] (setting [4]), the EC50 is 25.1 nM. The molecule also gave a pEC50 in test [2] of 7.
Consider `O=C(O)c1ccc(N2C[C@@H]3C[C@H]2C[C@H]3OCc2c(-c3c(Cl)cccc3Cl)noc2C2CC2)c(C(F)(F)F)c1` [Compound I-106, 4-((1S,4S,5R)-5-((5-cyclopropyl-3-(2,6-dichlorophenyl)isoxazol-4-yl)methoxy)-2-azabicyclo[2.2.1]heptan-2-yl)-3-(trifluoromethyl)benzoic acid], for which the figures for the Emax in test [1] (setting [3]) and in test [2] (setting [3]) were 106% and 126%, respectively. The same molecule gave a concentration giving a half-maximal response (EC50) in test [1] (setting [4]) of 0.631 nM. In test [2], the pEC50 amounted to 8.6.
On the same counts, the results for `O=C(O)c1ccc(N2C[C@@H]3C[C@H]2C[C@H]3OC(=O)c2c(-c3c(Cl)cccc3Cl)noc2C2CC2)c(F)c1` [Compound I-43, 4-[(1S,4S,5R)-5-[5-cyclopropyl-3-(2,6-dichlorophenyl)-1,2-oxazole-4-carbonyloxy]-2-azabicyclo[2.2.1]heptan-2-yl]-3-fluorobenzoic Acid] are 124%, 176%, 6.31 nM and 7.8.
Regarding `O=C(O)c1cc(OC(F)(F)F)c2nc(N3C[C@@H]4C[C@H]3C[C@H]4OCc3c(-c4c(Cl)cccc4Cl)noc3C3(F)CC3)sc2c1` [Compound I-25, 2-[(1S,4S,5R)-5-{[3-(2,6-dichlorophenyl)-5-(1-fluorocyclopropyl)-1,2-oxazol-4-yl]methoxy}-2-azabicyclo[2.2.1]heptan-2-yl]-4-(trifluoromethoxy)-1,3-benzothiazole-6-carboxylic Acid], the results for the Emax in test [1] (setting [3]) and in test [2] (setting [3]) were 102% and 172%, respectively. Moreover, the 50% effective concentration (EC50) in test [1] (setting [4]) was 0.398 nM. Besides, the pEC50 in test [2] is reported as 8.4.
On the same counts, the results for `Cc1cc(C(=O)NCCP(=O)(OCOC(=O)C(C)(C)C)OCOC(=O)C(C)(C)C)ccc1N1C[C@@H]2C[C@H]1C[C@H]2OCc1c(-c2c(Cl)cccc2Cl)noc1C1CC1` [Compound I-174, ({[2-({4-[(1S,4S,5R)-5-{[5-cyclopropyl-3-(2,6-dichlorophenyl)-1,2-oxazol-4-yl]methoxy}-2-azabicyclo[2.2.1]heptan-2-yl]-3-methylphenyl}formamido)ethyl]({[(2,2-dimethylpropanoyl)oxy]methoxy})phosphoryl}oxy)methyl 2,2-dimethylpropanoate] are 152%, 161%, 251 nM and 8.8.
On the same counts, the results for `O=C(O)c1cc(C2CCCC2)c2nc(N3C[C@H]4C[C@@H]3C[C@@H]4OCc3c(-c4c(Cl)cccc4Cl)noc3C3CC3)sc2c1` [Compound I-285, 4-cyclopentyl-2-[(1R,4R,5S)-5-{[5-cyclopropyl-3-(2,6-dichlorophenyl)-1,2-oxazol-4-yl]methoxy}-2-azabicyclo[2.2.1]heptan-2-yl]-1,3-benzothiazole-6-carboxylic Acid] are 100%, 116%, 2.51 nM and 8.9.
On the same counts, the results for `O=C(O)c1cc(F)c2nc(N3C[C@@H]4C[C@H]3C[C@H]4OC(=O)c3c(-c4c(Cl)cccc4Cl)noc3C3CC3)sc2c1` [Compound I-1, 2-[(1S,4S,5R)-5-[5-cyclopropyl-3-(2,6-dichlorophenyl)-1,2-oxazole-4-carbonyloxy]-2-azabicyclo[2.2.1]heptan-2-yl]-4-fluoro-1,3-benzothiazole-6-carboxylic Acid] are 126%, 148%, 10 nM and 7.4.
For the molecule `O=C(O)c1cc(F)c2nc(N3C[C@@H]4C[C@H]3C[C@@H]4OCc3c(-c4c(Cl)cccc4Cl)noc3C3CC3)sc2c1` [Compound I-37, 2-[(1S,4S,5S)-5-{[5-cyclopropyl-3-(2,6-dichlorophenyl)-1,2-oxazol-4-yl]methoxy}-2-azabicyclo[2.2.1]heptan-2-yl]-4-fluoro-1,3-benzothiazole-6-carboxylic Acid], the Emax in test [1] (setting [3]) was determined as 82%; in test [2] (setting [3]) it was 0%. Moreover, the EC50 in test [1] (setting [4]) was 1580 nM. The molecule also came in with a negative-log EC50 (pEC50) in test [2] of over 4.5.

The values above are taken from patent US10793568B2, “Hormone receptor modulators for treating metabolic conditions and disorders” (ARDELYX, INC., priority 2016, dated 2020).
